These are literature values, as cited in patent US20090062246A1, “THERAPEUTIC TREATMENT-014” (ASTRAZENECA AB, priority 2007, published 2009).

SMILES strings stand for the structures.

The target of the data set is T1, ETB receptor (Homo sapiens, UniProt P24530).
T1 sequence (P24530 27-442): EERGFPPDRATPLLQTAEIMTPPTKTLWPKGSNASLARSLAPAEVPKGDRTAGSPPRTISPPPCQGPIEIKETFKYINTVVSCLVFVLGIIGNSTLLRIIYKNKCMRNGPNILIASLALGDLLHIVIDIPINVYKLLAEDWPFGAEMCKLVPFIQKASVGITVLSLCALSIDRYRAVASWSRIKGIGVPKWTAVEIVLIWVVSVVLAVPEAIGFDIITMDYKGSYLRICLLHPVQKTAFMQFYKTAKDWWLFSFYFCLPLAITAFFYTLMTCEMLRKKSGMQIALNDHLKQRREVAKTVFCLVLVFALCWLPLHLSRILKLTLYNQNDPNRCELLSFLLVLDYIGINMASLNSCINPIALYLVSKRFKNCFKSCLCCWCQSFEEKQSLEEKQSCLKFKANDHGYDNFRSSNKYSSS
Conditions: described in WO04/018044.

In the case of `COc1nc(C)cnc1NS(=O)(=O)c1cccnc1-c1ccc(-c2nnco2)cc1` [Compound (I), N-(3-methoxy-5-methylpyrazin-2-yl)-2-(4-[1,3,4-oxadiazol-2-yl]phenyl)pyridine-3-sulphonamide], the “affinity for the ETB receptor” value is on record as “no measurable affinity”.
